# Test results published in patent US6228345A, “In vivo assay for intravasation” (Mount Sinai School of Medicine of New York University, priority 1999, dated 2001).
# Experiments:
# HEp3 cells = experiment: Intravasation assay: chick embryo CAM with Alu-PCR of lower CAM; format: in vivo, human
# MMP-9 = experiment: Gelatin gel zymography of HEp3 conditioned medium, MMP-9; format: biochemical, human; settings: 80 nM
# Experimental: (§1) FIG. 10. […] Serum-free conditioned medium of HEp3 cells was collected and electrophoresed on PAGE by loading 10 μl into each of five wells. The gel was sliced to include one sample per slice and each slice was incubated with marimastat at the indicated concentrations (0-1.6 μM) and the gels were incubated only for 22 hr.
# (§2) Ten μl aliquots of conditioned media were electrophoresed at 4° C. on 8% PAGE containing 0.1% gelatin, the gel washed in 2.5% Triton X-100 for 30 min, rinsed in water, and incubated for 40 hrs at 37° C. in buffer containing 50 mM Tris pH 7.7, 5 mM CaCl2, and 0.02% NaN3. To test for inhibition of MMPs by BB2516, HEp3 cell conditioned medium was electrophoresed in quadruplicate. The gel was cut into 4 fragments each containing one sample (lane) and incubated separately as above except that marimastat was added in increasing concentration to the incubation buffer. All gels were stained with Coomassie blue, de-stained and dried between dialysis sheets.
# [1] = tested on: MMP-1, MMP-2, MMP-3, MMP-7 and MMP-9; settings: one range printed for MMP-1, MMP-2, MMP-3, MMP-7 and MMP-9 together; cited from earlier work
# MMP-2 = experiment: Gelatin gel zymography of HEp3 conditioned medium, MMP-2; format: biochemical, human; settings: 1.6 μM, highest concentration tested
# Experimental: as §1, §2
# MMP-1 = experiment: Gelatin gel zymography of HEp3 conditioned medium, MMP-1; format: biochemical, human; settings: 80 nM
# Experimental: as §1, §2
structure (smiles),measurement,setting,value
CNC(=O)[C@@H](NC(=O)[C@H](CC(C)C)[C@H](O)C(=O)NO)C(C)(C)C [marimastat],inhibition of intravasation,"HEp3 cells; 200 μM inhibitor, compared with 100 μM",less effective
same,inhibition of intravasation,"HEp3 cells; final concentration of 50 nM, separate experiment",more than 60%
same,inhibition of MMP-9 activity (zymogram),MMP-9,block most
same,inhibition of MMP-2 activity (zymogram),MMP-2,residual lysis zone
same,inhibition of MMP-2 activity (zymogram),MMP-2; listed as Marimastat,not completely inhibited
same,inhibition of MMP-1 activity (zymogram),MMP-1,all of the MMP-1 activity
